{"source": "paper PMC6627698", "about": "“Redesigning Arenicin-1, an Antimicrobial Peptide from the Marine Polychaeta Arenicola marina, by Strand Rearrangement or Branching, Substitution of Specific Residues, and Backbone Linearization or Cyclization” (Marine Drugs, 2019)", "key": {"E. coli M15": {"system": "E. coli M15", "assay_type": "cell-based, Escherichia coli", "conditions": "M15, 18 h", "summary_of_the_method": "(§1)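 MIC by CLSI broth microdilution in 50% Mueller Hinton broth/50% PBS; mid-log bacteria at about 2 × 10^5 CFU/mL mixed 1:1 with serially diluted peptides. Wells pre-treated with 0.2% BSA to limit peptide binding to plastic.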"}, "E. coli ATCC 25922": {"system": "E. coli ATCC 25922", "assay_type": "cell-based, Escherichia coli", "conditions": "ATCC 25922, 18 h", "summary_of_the_method": "as §1"}, "P. aeruginosa c.i.": {"system": "P. aeruginosa c.i.", "assay_type": "cell-based, Pseudomonas aeruginosa", "conditions": "18 h", "summary_of_the_method": "as §1"}, "[1]": {"system": "set of Gram-negative and Gram-positive bacteria, including drug-resistant clinical isolates", "assay_type": "cell-based", "conditions": "12 strains; median MICs used; MIC > 16 µM taken as 32 µM"}, "[2]": {"system": "human erythroleukemia K-562 cells", "assay_type": "cell-based", "conditions": "24 h", "summary_of_the_method": "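MTT cytotoxicity in K-562 cells, 10^5 cells/well in serum-free RPMI 1640, exposed to serial peptide dilutions for 24 h at 37 °C, 5% CO2. OD540 read (690 nm background subtracted); IC50 by nonlinear regression of dose–response curves.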"}, "Escherichia coli ML35p": {"system": "Escherichia coli ML35p", "assay_type": "cell-based", "conditions": "broth microdilution, 50% Mueller Hinton broth / 50% PBS, 18 h at 37 °C, median of 3–5 experiments in triplicates", "summary_of_the_method": "as §1"}, "[3]": {"system": "Staphylococcus aureus 710A", "assay_type": "cell-based", "conditions": "18 h", "summary_of_the_method": "as §1"}, "[4]": {"system": "Pseudomonas aeruginosa ATCC 27853", "assay_type": "cell-based", "conditions": "ATCC 27853, 18 h", "summary_of_the_method": "as §1"}, "[5]": {"system": "Listeria monocytogenes EGD", "assay_type": "cell-based", "conditions": "18 h", "summary_of_the_method": "as §1"}, "[6]": {"system": "Acinetobacter baumanii c.i.", "assay_type": "cell-based, Acinetobacter baumannii", "conditions": "18 h", "summary_of_the_method": "as §1"}, "S. aureus ATCC 25923": {"system": "S. aureus ATCC 25923", "assay_type": "cell-based, Staphylococcus aureus", "conditions": "ATCC 25923, 18 h", "summary_of_the_method": "as §1"}, "MRSA ATCC 33591": {"system": "MRSA ATCC 33591", "assay_type": "cell-based, Staphylococcus aureus", "conditions": "ATCC 33591, 18 h", "summary_of_the_method": "as §1"}, "S. aureus c.i.": {"system": "S. aureus c.i.", "assay_type": "cell-based, Staphylococcus aureus", "conditions": "18 h", "summary_of_the_method": "as §1"}, "[7]": {"system": "Staphylococcus intermidius", "assay_type": "cell-based, Staphylococcus intermedius", "conditions": "18 h", "summary_of_the_method": "as §1"}, "[8]": {"system": "E. coli ML35p outer membrane", "assay": "Outer membrane permeabilization assay (nitrocefin hydrolysis)", "assay_type": "cell-based, Escherichia coli", "conditions": "peptide at 2 × MIC, 10 mM sodium phosphate buffer, 100 mM NaCl, pH 7.4, 37 °C, 486 nm", "method": "Figure 5 Permeabilizing effect of arenicin-1 variants on E. coli ML35p outer and cytoplasmic membranes.\nThe E. coli ML35p outer membrane permeability was assessed by monitoring hydrolysis of the chromogenic β-lactamase substrate nitrocefin (3-(2,4-dinitrostyryl)-(6R,7R)-7-(2-thienyl acetamido)ceph-3-em-4-carboxylic acid) (Calbiochem-Novabiochem, San-Diego, CA, USA) by detection of the hydrolysis product at 486 nm. Inner membrane permeability was monitored by measuring the hydrolysis of o-nitrophenyl-β-D-galactoside (ONPG, Sigma, La Jolla, CA, USA) at 420 nm. The E. coli ML35p strain expresses a plasmid-encoded periplasmic β-lactamase; it constitutively expresses cytoplasmic β-galactosidase and lacks lactose permease. E. coli ML35p was maintained on trypticase soy agar plates containing […] of ampicillin per mL. The bacteria used for antimicrobial testing or membrane permeability assays were picked from a single colony, incubated in 50 mL of sterile Trypticase soy broth for 16 h at 37 °C, washed three times with 10 mM sodium phosphate buffer (pH 7.4), adjusted to an optical density at 620 nm of 1 (2.5 × 10^8 CFU/mL), and kept on ice until use. The assays were performed in 96-well microtiter plates that were monitored every minute with a SpectraMax 250 Microplate Spectrophotometer (Molecular Devices, Sunnyvale, CA, USA) using the SOFTmax PRO software supplied by the manufacturer. […]"}}, "note": "pIC50: −log10 of the molar value. Residues, ends and D or L forms follow the SMILES beside them.", "data": [{"smiles": "CC(C)C[C@@H]1NC(=O)[C@H](C(C)C)NC(=O)CNC(=O)[C@H](CCCCN)NC(=O)[C@H](C(C)C)NC(=O)[C@H](CCCCN)NC(=O)[C@H](C(C)C)NC(=O)[C@H](Cc2ccc(O)cc2)NC(=O)[C@H](C)NC(=O)[C@H](Cc2ccc(O)cc2)NC(=O)[C@H](C(C)C)NC(=O)[C@@H](NC(=O)[C@H](Cc2c[nH]c3ccccc23)NC(=O)[C@@H](N)CCCCN)CSSC[C@@H](C(=O)N[C@@H](Cc2c[nH]c3ccccc23)C(=O)O)NC(=O)[C@H](CCCCN)NC(=O)[C@H](CCCCN)NC(=O)[C@H](Cc2ccc(O)cc2)NC(=O)[C@H](CCCCN)NC(=O)[C@H](C(C)C)NC1=O", "note": "[AR-K] (HELM PEPTIDE1{K.W.C.V.Y.A.Y.V.K.V.K.G.V.L.V.K.Y.K.K.C.W}$PEPTIDE1,PEPTIDE1,3:R3-20:R3$$$V2.0; N-terminus assumed)", "values": [{"measurement": "Minimal Inhibitory Concentrations (MIC)", "setting": "E. coli M15", "result": 1, "unit": "µM"}, {"measurement": "Minimal Inhibitory Concentrations (MIC)", "setting": "E. coli ATCC 25922", "result": 2, "unit": "µM"}, {"measurement": "Minimal Inhibitory Concentrations (MIC)", "setting": "P. aeruginosa c.i.", "result": "2 to 4", "unit": "µM"}, {"measurement": "G-MIC (geometric mean of all determined MICs)", "setting": "[1]", "result": 1.9, "unit": "µM"}, {"measurement": "pIC50", "setting": "[2]", "result": 5.11}, {"measurement": "Minimal Inhibitory Concentrations (MIC)", "setting": "Escherichia coli ML35p", "result": 1, "unit": "µM"}, {"measurement": "Minimal Inhibitory Concentrations (MIC)", "setting": "[3]", "result": 2, "unit": "µM"}, {"measurement": "Minimal Inhibitory Concentrations (MIC)", "setting": "[4]", "result": "1 to 2", "unit": "µM"}, {"measurement": "Minimal Inhibitory Concentrations (MIC)", "setting": "[5]", "result": 2, "unit": "µM"}, {"measurement": "Minimal Inhibitory Concentrations (MIC)", "setting": "[6]", "result": 1, "unit": "µM"}, {"measurement": "Minimal Inhibitory Concentrations (MIC)", "setting": "S. aureus ATCC 25923", "result": 2, "unit": "µM"}, {"measurement": "Minimal Inhibitory Concentrations (MIC)", "setting": "MRSA ATCC 33591", "result": 2, "unit": "µM"}, {"measurement": "Minimal Inhibitory Concentrations (MIC)", "setting": "S. aureus c.i.", "result": 4, "unit": "µM"}, {"measurement": "Minimal Inhibitory Concentrations (MIC)", "setting": "[7]", "result": 4, "unit": "µM"}, {"measurement": "Capacity to permeabilize the outer membrane with respect to arenicin-1", "setting": "[8]", "result": "improved capacity to permeabilize the outer membrane"}]}]}
